Laboratory results reported in ChEMBL document CHEMBL1142979, “Nonprenylated rotenoids, a new class of potent breast cancer resistance protein inhibitors” (J Med Chem, 2007).
pIC50: −log10 of the molar value.

How the values were obtained:
Type in all cases: cell-based
[1] = biological target: T1, Broad substrate specificity ATP-binding cassette transporter ABCG2 (Homo sapiens, UniProt Q9UNQ0); assay: Inhibition of BCRP expressed in human HEK293 cells assessed as maximal mitoxantrone accumulation at 10 uM relative control; parameters: scale not given: the % may be the effect or the level left; settings: hek293, 10 µM
T1 sequence (Q9UNQ0 whole entry): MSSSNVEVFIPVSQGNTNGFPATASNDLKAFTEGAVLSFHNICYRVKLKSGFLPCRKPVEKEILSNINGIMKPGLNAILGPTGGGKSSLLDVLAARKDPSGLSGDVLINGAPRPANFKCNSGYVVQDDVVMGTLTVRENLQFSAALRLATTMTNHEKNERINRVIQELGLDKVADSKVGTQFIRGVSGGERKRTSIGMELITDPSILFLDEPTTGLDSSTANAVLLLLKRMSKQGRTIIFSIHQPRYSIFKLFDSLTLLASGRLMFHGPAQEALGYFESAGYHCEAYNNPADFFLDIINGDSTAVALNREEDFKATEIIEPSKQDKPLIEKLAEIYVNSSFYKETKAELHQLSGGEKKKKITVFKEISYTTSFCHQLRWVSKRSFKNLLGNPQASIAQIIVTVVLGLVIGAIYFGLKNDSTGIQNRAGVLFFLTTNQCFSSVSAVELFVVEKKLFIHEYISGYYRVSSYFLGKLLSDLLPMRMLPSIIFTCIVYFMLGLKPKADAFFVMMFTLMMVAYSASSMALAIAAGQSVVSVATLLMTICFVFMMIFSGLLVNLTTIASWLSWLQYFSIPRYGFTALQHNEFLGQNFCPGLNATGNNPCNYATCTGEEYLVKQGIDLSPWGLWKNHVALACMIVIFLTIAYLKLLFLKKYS

[2] = biological target: T2, BCRP (ABCG2) (Homo sapiens, UniProt Q9UNQ0); assay: Inhibition of BCRP expressed in human HEK293 cells assessed as maximal mitoxantrone accumulation at 20 uM relative control; settings: HEK293 cells that express BCRP, probe mitoxantrone, read-out: Activity
T2 sequence (Q9UNQ0 whole entry): T1 sequence (Q9UNQ0 whole entry)

[3] = biological target: T1, Broad substrate specificity ATP-binding cassette transporter ABCG2; assay: Inhibition of BCRP expressed in human HEK293 cells assessed as maximal mitoxantrone accumulation at 5 uM relative control; parameters: scale not given: the % may be the effect or the level left; settings: hek293, 5 µM
[4] = biological target: T1, Broad substrate specificity ATP-binding cassette transporter ABCG2; assay: Inhibition of BCRP expressed in human HEK293 cells assessed as maximal mitoxantrone accumulation

Question: How did the Activity [1] turn out when `COc1cc2c(c(O)c1OC)C(=O)[C@]1(O)c3ccccc3OC[C@H]1O2` [COCCINEONE E] was run?
Answer: 15%

Question: With `COc1cc2oc3c(c(=O)c2c(O)c1C)-c1cccc(O)c1OC3O` (stereo not drawn) [9-O-METHYL-4-HYDROXYBOERAVINONE B] as the molecule, how does the Emax at 20 µM [2] read?
Answer: 15%

Question: With `Cc1c(O)cc2oc3c(c(=O)c2c1O)-c1ccc(O)cc1OC3O` (stereo not drawn) [BOERAVINONE E] as the molecule, how does the Activity [1] read?
Answer: 56%

Question: Which results are given for `COc1cc(O)c2c(=O)c3c(oc2c1)C(OC)Oc1c(O)cccc1-3` (stereo not drawn) [BOERAVINONE G]?
Answer: Activity [3]: 92%; pIC50 [4]: 6.15

Question: For `COc1c(C)c(O)c2c(=O)c3c(oc2c1O)C(O)Oc1ccccc1-3` (stereo not drawn) [BOERAVINONE I], which Emax at 20 µM [2] is on record?
Answer: 12%

Question: `O=c1c2c(oc3cc(O)cc(O)c13)C(O)Oc1ccccc1-2` (stereo not drawn) [COCCINEONE B] was tested. Which Activity [1] did it give?
Answer: 29%

Question: Which Emax at 20 µM [2] does the source give for `Cc1c(O)cc2oc3oc4cc(O)ccc4c3c(=O)c2c1O` [BOERAVINONE J] here?
Answer: 15%

Question: Which Activity [3] does the source give for `COc1cc2oc3c(c(=O)c2c(O)c1C)-c1cccc(O)c1OC3OC` (stereo not drawn) [BOERAVINONE H] here?
Answer: 68%

Question: And the pIC50 [4]?
Answer: 5.60

Question: `COc1cc2c(c(O)c1C)C(=O)[C@]1(O)c3cccc(O)c3OC[C@H]1O2` [BOERAVINONE C] was tested. Which Activity [1] did it give?
Answer: 31%

Question: Which Activity [1] does the source give for `COC1Oc2ccccc2-c2c1oc1cc(O)c(C)c(O)c1c2=O` (stereo not drawn) [BOERAVINONE A] here?
Answer: 27%

Question: For `Cc1c(O)cc2oc3c(c(=O)c2c1O)-c1ccccc1OC3O` (stereo not drawn) [BOERAVINONE B], which Activity [1] is on record?
Answer: 55%
